Reference: patent publication US20240122897A1, “DMT SALTS AND THEIR USE TO TREAT BRAIN INJURY” (ALGERNON PHARMACEUTICALS INC., priority 2021, published 2024)
Like-named read-outs stand apart in the source and are kept apart here.

How the values were obtained:
[1] = tested on: cerebral ischemia-reperfusion injury; settings: rat; cited from earlier work
[2] = tested on: primary rat cortical neurons; assay: Neurite outgrowth of primary rat cortical neurons (MAP-2 immunocytochemistry)
[3] = in vivo, cited from earlier work
[4] = target: T1, sigma-1 receptor (Homo sapiens, UniProt Q99720); assay: biochemical; settings: for IC50: IC50, estimated, duplicate; for Ki: Cheng and Prusoff
Experimental: (§1) IC50 values were determined by a non-linear, least squares regression analysis using MathIQ™ (ID Business Solutions Ltd., UK). […] The Hill coefficient (nH), defining the slope of the competitive binding curve, was calculated using MathIQ™.
(§2) Biochemical assay results are presented as the percent inhibition of specific binding or activity. All other results are expressed in terms of that assay's quantitation method. Primary screening in duplicate with semi-quantitative data (e.g., estimated IC50, Ki and nH) are shown.

[5] = target: T2, Serotonin (5-Hydroxytryptamine) 5-HT2A (Homo sapiens, UniProt P28223); assay: biochemical; format: binding
T2 construct: purchased Eurofins Panlabs, Inc. 271650

[6] = target: T1, sigma-1 receptor
Experimental: as §1, §2

T1 sequence (Q99720 whole entry): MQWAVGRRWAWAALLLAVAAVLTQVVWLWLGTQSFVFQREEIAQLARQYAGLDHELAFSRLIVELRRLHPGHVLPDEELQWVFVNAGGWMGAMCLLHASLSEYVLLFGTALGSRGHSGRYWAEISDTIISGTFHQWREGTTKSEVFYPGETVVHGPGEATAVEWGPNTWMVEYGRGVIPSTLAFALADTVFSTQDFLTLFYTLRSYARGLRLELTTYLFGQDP
T2 sequence (P28223 whole entry): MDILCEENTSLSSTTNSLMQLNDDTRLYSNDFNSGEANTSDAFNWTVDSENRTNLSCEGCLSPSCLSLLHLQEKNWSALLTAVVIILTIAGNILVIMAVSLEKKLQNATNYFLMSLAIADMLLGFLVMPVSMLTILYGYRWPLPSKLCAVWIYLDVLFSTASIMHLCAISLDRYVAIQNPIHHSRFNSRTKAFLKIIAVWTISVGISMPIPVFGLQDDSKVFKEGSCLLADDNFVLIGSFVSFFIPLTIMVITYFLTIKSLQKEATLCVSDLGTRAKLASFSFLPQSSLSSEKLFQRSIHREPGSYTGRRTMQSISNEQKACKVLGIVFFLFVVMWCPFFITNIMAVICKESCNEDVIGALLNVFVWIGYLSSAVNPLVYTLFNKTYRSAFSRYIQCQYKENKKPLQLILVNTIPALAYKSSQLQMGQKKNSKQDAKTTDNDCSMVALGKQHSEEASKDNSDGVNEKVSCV

Compound | IC50 [4] [µM] | Ki [4] [µM] | nH (Hill coefficient) [5] | % Inh. ([5]; 0.003 µM) [%] | % Inh. ([5]; 0.3 µM) [%] | IC50 [5] [nM] | Ki [5] [nM] | nH (Hill coefficient) [6] | % Inh. ([6]; 0.03 μM) [%] | % Inh. ([6]; 0.1 μM) [%] | % Inh. ([6]; 0.5 μM) [%] | % Inh. ([6]; 1 μM) [%] | % Inh. ([6]; 10 μM) [%] | % Inh. ([5]; 0.01 µM) [%] | % Inh. ([5]; 0.03 μM) [%] | % Inh. ([5]; 1 μM) [%] | inhibition at 0.1 µM ([5]; read-out: % Inh.) [%] | inhibition at 3 µM ([5]; read-out: % Inh.) [%] | inhibition at 10 µM ([5]; read-out: % Inh.) [%] | % Inh. ([6]; 10 nM, 0.01 µM) [%] | further results
CN(C)CCc1c[nH]c2ccccc12 [DMT, N, N-Dimethyltryptamine] |  |  |  |  |  |  |  |  |  |  |  |  |  |  |  |  |  |  |  |  | functional recovery [1]: improved; infarct (dead cells) volume [1]: reduced; neurite outgrowth of rat cortical neurons ([2]; DMT stimulation, overall): showed beneficial effects; oral availability ([3]; po): not orally available; half-life [3]: 15 min
CNC1(c2ccccc2Cl)CCCCC1=O (stereo not drawn) [Ketamine] |  |  |  |  |  |  |  |  |  |  |  |  |  |  |  |  |  |  |  |  | neurite outgrowth ([2]; 10 nM, 1-72 h stimulation): did not show any significant beneficial effects
CN(C)CCc1c[nH]c2ccccc12.O=C(O)/C=C/C(=O)O [N,N-Dimethyltryptamine fumarate, reference compound] | 10.2 | 5.28 | 0.75 | 8 | 48 | 250 | 71 | 0.76 | 15 | 7 | 5 | 14 | 50 |  |  |  |  |  |  |  | inhibition at 5 µM ([4]; read-out: % Inh., 5 μM): 36%; inhibition at 16 µM ([4]; read-out: % Inh., 16 μM): 59%; % Inh. ([5]; 0.1 μM): 26%; % Inh. ([5]; 3 µM): 93%; % Inh. ([5]; 10 μM): 98%; inhibition at 0.01 µM ([5]; read-out: % Inh.): 15%; inhibition at 0.03 µM ([5]; read-out: % Inh.): 24%; inhibition at 1 µM ([5]; read-out: % Inh.): 76%; % Inh. ([6]; 10 nM): 6%
CN(C)CCc1c[nH]c2ccccc12 [N,N-Dimethyltryptamine nicotinate] |  |  | 0.71 |  | 31 | 600 | 170 |  | −9 | −3 | −13 | 5 | 44 | 14 | 17 | 59 | 19 | 79 | 92 | −6 | inhibition at 0.003 µM ([5]; read-out: % Inh.): 7%; % Inh. ([6]; 5 μM): 23%; % Inh. ([6]; 16 μM): 44%; binding affinity to sigma-1-receptors ([6]; at concentrations above 0.5 μM): good binding affinity
CN(C)CCc1c[nH]c2ccccc12 [N,N-Dimethyltryptamine pamoate] | 6.31 | 3.25 | 0.92 | 2 |  | 190 | 54 | 1.35 | −10 | 0 | 1 | 6 |  | 10 | 20 | 86 | 34 | 95 | 100 | −14 | inhibition at 10 µM ([4]; read-out: % Inh., 10 μM): 64%; 5HT2A binding compared to DMT fumarate [5]: improved 5HT2A binding; inhibition at 0.3 µM ([5]; read-out: % Inh.): 56%; % Inh. ([6]; 5 μM): 45%; % Inh. ([6]; 16 μM): 77%; affinity to sigma-1 receptors compared to DMT fumarate ([6]; at concentrations above 1 μM): better affinity
